# Results reported in ChEMBL document CHEMBL3046738, “Quinolactacide, a new quinolone insecticide from Penicillium citrinum Thom F 1539” (Biosci Biotechnol Biochem, 2005).
# What was measured:
# [1] = Solubility of the compound in methanol; type: physicochemical
# [2] = Solubility of the compound in chloroform; type: physicochemical
# [3] = Solubility of the compound in ethyl acetate; type: physicochemical
# Myzus persicae = experiment: Insecticidal activity against Myzus persicae (green peach aphid) infested two-leaf stage of cabbage plants assessed as mortality at 250 ppm applied as spray after 4 days relative to untreated control; type: functional; conditions: 96 h
# [4] = Solubility of the compound in DMSO; type: physicochemical
compound,measurement,setting,value
O=C1c2c([nH]c3ccccc3c2=O)-c2cccn21 [QUINOLACTACIDE],solubility,[1],Insoluble
same,solubility,[2],Insoluble
same,solubility,[3],Insoluble
same,mortality at 250 ppm,Myzus persicae,88%
same,solubility,[4],soluble
